Assay results as given in patent publication US9193983B2, “Assays for mutagenesis detection” (The Regents of the University of California, priority 2007, dated 2015).
Read-outs that look alike come from different tables or passages of the source. Numbered stars: 1 amine (or outer) side, 2 acyl side, 3 side chain; on linkers, the order of the positions; unused ones are H or OH. Bridge positions count the residues as written; N and C are the ends. Square brackets hold non-standard residues; d marks the D form. Peptide text beside a SMILES is read from it. I, II: the chains in the order shown. Actinocin(9to1) = Cc1c2oc3c(C)ccc(C(=O)[*:1])c3nc-2c(C(=O)[*:2])c(N)c1=O; NMeV = CN[C@H](C(=O)O)C(C)C; Sar = CNCC(=O)O

Key:
[1] = well-based DEL assay (MTS colorimetric, 96/384-well): genotoxicity and cytotoxicity; settings: Saccharomyces cerevisiae; for viability: Cytotoxicity (% survival)
Excerpt: (§1) The RS112 yeast DEL assay tester strain of Saccharomyces cerevisiae contains a plasmid with an internal fragment of the HIS3 gene integrated at the genomic HIS3 locus, yielding an integrative disruption of the HIS3 gene. This disruption results in two copies of the HIS3 gene, each copy having one terminal deletion. Recombination between the two his3 deletion alleles results in reversion to HIS3^+ and growth in the absence of histidine. This recombination event leads to a 6 kb DNA deletion comprising the integrated plasmid leading to deletion (DEL) events. The assay utilizing DEL events involves overnight growth of a single colony of the RS112 strain and subsequent subculture with the presence or absence of the chemical being tested for 17 hours at 30° C. under constant shaking. Yeast are then plated onto SC medium to determine the number of survivors (individual colonies are counted) and onto SC-HIS medium to score for DEL events. The traditional DEL assay is very powerful if one is testing a limited number of chemicals but becomes impractical for screening large numbers of chemicals and chemical libraries.
(§2) For 384-well plate format, 1 μl of yeast (˜100,000 cells) was pipetted into 8 microplate wells for each compound, four of which containing 70 μl SC media and four containing 70 μl SC-HIS media; each well was supplemented with 14 μl of MTS and 5 μl of compound. For 96-well plate format, the above was consistent except media, MTS, and compound volumes were 100 μl, 20 μl, and 7 μl, respectively. Control wells were treated with water in lieu of compound. The outermost columns of the 96-well plate and outer two columns of each 384-well plate were excluded from experimentation lest edge evaporative effects alter the data. Plates were incubated at 30° C. at normal atmosphere during which yeast were grown in the presence of the tested compound and 490 nm absorbance was measured 10-18 hr later using a Molecular Devices SpectraMax M5 microplate reader (Sunnyvale, Calif.).
(§3) Survival for a given compound treatment was quantified by averaging the absorbance across the four treated wells in SC media and dividing that by the average absorbance of control wells. DEL induction was quantified by dividing the absorbance of each SC-HIS well by the corresponding paired SC well. Thus for each compound done in quadruplicate, each plate contains a set of 4 different measurements of DEL induction. For each compound, ratio of the average DEL induction in treated versus control cultures was taken as the fold-increase in DEL events (HIS^+ growth). A Student's t-test was performed on the 4 measurements of DEL induction and the same measurements recorded from control wells to determine significance of the fold-increase. It should be noted that this value of fold-increase is analyzed statistically for significance and not absolute; thus two different chemicals may have the same fold-increase but varying levels of significance. In plots and tables, data from a single experiment performed in quadruplicate is presented; all experiments were repeated independently in at least 3 separate experiments in both 96 and 384-well plate formats.

[2] = tested on: S. cerevisiae strain RS112; assay: as above; settings: for DEL events (DNA deletions) induced by crosslinking agents: well-based DEL assay; for DNA deletion potential (DEL events) of solvent alone: compared to control treated yeast
Excerpt: as §1, §2, §3

[3] = tested on: Saccharomyces cerevisiae; settings: cited from earlier work
[4] = S. cerevisiae strain RS112 (diploid yeast cells)
[5] = concentrations as low as 1 μM (~0.3 μg/ml)

CC[C@@]1(O)C(=O)OCc2c1cc1n(c2=O)Cc2cc3ccccc3nc2-1 [Camptothecin, camptothecin]
viability at 5 μM [1, 4]: 86.1%
viability at 15 μM [1, 4]: 93.1%
viability at 25 μM [1, 4]: 95.7%
viability at 40 μM [1, 4]: 85.6%
Cytotoxicity significance ([2]; 5 μM final in well): *** (*** (p < 0.005))
DEL (fold increase) ([2]; 5 μM final in well): 1.28 fold
DEL significance ([2]; 5 μM final in well): ** (** (p < 0.01))
Cytotoxicity significance ([2]; 15 μM final in well): * (* (p < 0.05))
DEL (fold increase) ([2]; 15 μM final in well): 1.53 fold
DEL significance ([2]; 15 μM final in well): *** (*** (p < 0.005))
Cytotoxicity significance ([2]; 25 μM final in well): * (* (p < 0.05))
DEL (fold increase) ([2]; 25 μM final in well): 1.57 fold
DEL significance ([2]; 25 μM final in well): *** (*** (p < 0.005))
Cytotoxicity significance ([2]; 40 μM final in well): *** (*** (p < 0.005))
DEL (fold increase) ([2]; 40 μM final in well): 1.77 fold
DEL significance ([2]; 40 μM final in well): *** (*** (p < 0.005))
cytotoxicity ([2]; each concentration 5-40 μM): various degrees of cytotoxicity
genotoxicity (growth in −HIS media) ([2]; each concentration 5-40 μM (1.7-13.9 μg/ml)): significant genotoxicity

O=NN(CCCl)C(=O)NCCCl [Carmustine, carmustine]
viability ([1]; 10 μM final in well): 91.8%
viability ([1]; 30 μM final in well): 29.5%
viability ([1]; 50 μM final in well): 10.7%
cytotoxic effects [2]: more pronounced genotoxic and cytotoxic effects
DEL significance ([2]; 10 μM final in well): * (* (p < 0.05))
DEL significance ([2]; 30 μM final in well): *** (*** (p < 0.005))
DEL significance ([2]; 50 μM final in well): *** (*** (p < 0.005))
DEL events (DNA deletions) induced by crosslinking agents [2]: significant increase in DEL events

COS(C)(=O)=O [MMS, methylmethane sulfonate]
viability at 10 nM [1, 4]: 81.2%
viability at 100 nM [1, 4]: 74.8%
viability at 500 nM [1, 4]: 38.6%
viability at 1000 nM [1, 4]: 20.3%
Cytotoxicity significance ([2]; 10 nM final in well): *** (*** (p < 0.005))
DEL (fold increase) ([2]; 10 nM final in well): 1.54 fold
DEL significance ([2]; 10 nM final in well): ** (** (p < 0.01))
Cytotoxicity significance ([2]; 100 nM final in well): *** (*** (p < 0.005))
DEL (fold increase) ([2]; 100 nM final in well): 1.68 fold
DEL significance ([2]; 100 nM final in well): *** (*** (p < 0.005))
Cytotoxicity significance ([2]; 500 nM final in well): *** (*** (p < 0.005))
DEL (fold increase) ([2]; 500 nM final in well): 2.16 fold
DEL significance ([2]; 500 nM final in well): *** (*** (p < 0.005))
Cytotoxicity significance ([2]; 1000 nM final in well): *** (*** (p < 0.005))
DEL (fold increase) ([2]; 1000 nM final in well): 3.09 fold
DEL significance ([2]; 1000 nM final in well): *** (*** (p < 0.005))
cytotoxicity ([2]; each concentration between 10-1000 nM): increasingly significantly cytotoxic
DEL fold-increase ([2]; lowest dose tested of 10 nM (0.0011 μg/ml)): significant increase in DEL fold-increase

CC(C)=O [Acetone, acetone]
DEL (fold increase) ([2]; 0.4% (solvent tested alone)): 0.96 fold
DEL significance ([2]; 0.4% (solvent tested alone)): ns (ns—not significant (p > 0.05))
DNA deletion potential (DEL events) of solvent alone [2]: neither solvents generated any differentiable response

O=[N+]([O-])c1cc[n+]([O-])c2ccccc12 [4NQO, 4-nitroquinoline-1-oxide]
viability ([1]; 0.08 μg/ml final in well): 20.3%
viability ([1]; 0.2 μg/ml final in well): 11.7%
viability ([1]; 1 μg/ml final in well): 13.5%

O=C(O)CCCc1ccc(N(CCCl)CCCl)cc1 [Chlorambucil, chlorambucil]
viability at 1 μM [1]: 82.4%
viability at 10 μM [1]: 35.7%
viability at 30 μM [1]: 20.5%
Cytotoxicity significance ([2]; 1 μM final in well): ** (** (p < 0.01))
DEL (fold increase) ([2]; 1 μM final in well): 1.18 fold
DEL significance ([2]; 1 μM final in well): * (* (p < 0.05))
Cytotoxicity significance ([2]; 10 μM final in well): *** (*** (p < 0.005))
DEL (fold increase) ([2]; 10 μM final in well): 2.37 fold
DEL significance ([2]; 10 μM final in well): *** (*** (p < 0.005))
Cytotoxicity significance ([2]; 30 μM final in well): *** (*** (p < 0.005))
DEL (fold increase) ([2]; 30 μM final in well): 3.58 fold
DEL significance ([2]; 30 μM final in well): *** (*** (p < 0.005))
cytotoxicity [2, 5]: significant genotoxicity and cytotoxicity
genotoxicity [2, 5]: significant genotoxicity and cytotoxicity
DEL events (DNA deletions) induced by crosslinking agents [2]: significant increase in DEL events

O=P1(N(CCCl)CCCl)NCCCO1 (stereo not shown) [Cyclophosphamide, cyclophosphamide monohydrate]
viability at 50 μM [1]: 109%
viability at 100 μM [1]: 104%
viability at 200 μM [1]: 96.2%
DEL (fold increase) ([2]; 50 μM final in well): 0.77 fold
DEL significance ([2]; 50 μM final in well): ns (ns—not significant (p > 0.05))
DEL (fold increase) ([2]; 100 μM final in well): 0.74 fold
DEL significance ([2]; 100 μM final in well): ns (ns—not significant (p > 0.05))
Cytotoxicity significance ([2]; 200 μM final in well): ns (ns—not significant (p > 0.05))
DEL (fold increase) ([2]; 200 μM final in well): 0.95 fold
DEL significance ([2]; 200 μM final in well): ns (ns—not significant (p > 0.05))
DEL fold-increase ([2]; up to 200 μM): no DEL fold-increase

c1ccccc1 [Benzene, benzene]
viability at 0.25 mg/ml [1]: 96%
viability at 0.4 mg/ml [1]: 83.7%
Cytotoxicity significance ([2]; 0.25 mg/ml final in well): ns (ns—not significant (p > 0.05))
DEL (fold increase) ([2]; 0.25 mg/ml final in well): 1.77 fold
DEL significance ([2]; 0.25 mg/ml final in well): *** (*** (p < 0.005))
Cytotoxicity significance ([2]; 0.40 mg/ml final in well): ** (** (p < 0.01))
DEL (fold increase) ([2]; 0.40 mg/ml final in well): 2.31 fold
DEL significance ([2]; 0.40 mg/ml final in well): *** (*** (p < 0.005))
DEL induction ([2]; 0.25 and 0.40 mg/ml): significant DEL induction

CCOS(C)(=O)=O [EMS, ethyl methanesulfonate]
viability at 2 μg/ml [1, 4]: 38.2%
viability at 5 μg/ml [1, 4]: 8.36%
viability at 10 μg/ml [1, 4]: 6.7%
Cytotoxicity significance ([2]; 2 μg/ml final in well): *** (*** (p < 0.005))
DEL (fold increase) ([2]; 2 μg/ml final in well): 1.59 fold
DEL significance ([2]; 2 μg/ml final in well): *** (*** (p < 0.005))
Cytotoxicity significance ([2]; 5 μg/ml final in well): *** (*** (p < 0.005))
DEL (fold increase) ([2]; 5 μg/ml final in well): 3.19 fold
DEL significance ([2]; 5 μg/ml final in well): *** (*** (p < 0.005))
Cytotoxicity significance ([2]; 10 μg/ml final in well): *** (*** (p < 0.005))
DEL (fold increase) ([2]; 10 μg/ml final in well): 2.65 fold
DEL significance ([2]; 10 μg/ml final in well): *** (*** (p < 0.005))
growth in +13 media (cytotoxicity) ([2]; 2, 5 and 10 μg/ml): diminished growth in +13 media
growth in −HIS media (genotoxicity) ([2]; 2, 5 and 10 μg/ml): increased growth in −HIS media

CC(=O)N[C@@H](CS)C(=O)O [NAC, N-acetylamine]
protection against HNO induced DNA deletions [3]: protected

Cc1c2oc3c(C)ccc(C(=O)N[C@@H]4C(=O)N[C@H](C(C)C)C(=O)N5CCC[C@H]5C(=O)N(C)CC(=O)N(C)[C@@H](C(C)C)C(=O)O[C@@H]4C)c3nc-2c(C(=O)N[C@@H]2C(=O)N[C@H](C(C)C)C(=O)N3CCC[C@H]3C(=O)N(C)CC(=O)N(C)[C@@H](C(C)C)C(=O)O[C@@H]2C)c(N)c1=O [ActD, actinomycin D] (I: T[dV]P[Sar][NMeV] / II: T[dV]P[Sar][NMeV]; ester I:1-I:C, II:1-II:C; linker I:N-II:N via Actinocin(9to1))
Cytotoxicity significance [2]: ** (key: * (p < 0.05); ** (p < 0.01); *** (p < 0.005); ns—not significant (p > 0.05))
DEL fold-increase [2]: significant DEL fold-increase
cytotoxicity [2]: slight cytotoxicity
Cytotoxicity (% survival) ([2]; 5 μM final in well): 112.0%
DEL (fold increase) ([2]; 5 μM final in well): 0.89 fold
DEL significance ([2]; 5 μM final in well): ns (ns—not significant (p > 0.05))
Cytotoxicity (% survival) ([2]; 10 μM final in well): 110.2%
DEL (fold increase) ([2]; 10 μM final in well): 0.96 fold
DEL significance ([2]; 10 μM final in well): ns (ns—not significant (p > 0.05))
Cytotoxicity (% survival) ([2]; 20 μM final in well): 86.3%
DEL (fold increase) ([2]; 20 μM final in well): 1.26 fold
DEL significance ([2]; 20 μM final in well): ** (** (p < 0.01))

C[S+](C)[O-] [DMSO, dimethyl sulfoxide]
DEL (fold increase) ([2]; 1% (solvent tested alone)): 0.96 fold
DEL significance ([2]; 1% (solvent tested alone)): ns (ns—not significant (p > 0.05))
DNA deletion potential (DEL events) of solvent alone [2]: neither solvents generated any differentiable response
